US11155820B2, “Target of VGSC β3 protein for prevention, treatment and diagnostic detection of cancers” (SHENYANG PHARMACEUTICAL UNIVERSITY, priority 2014, dated 2021)

Assays:
[1] = tested on: VGSC β3 subunit; experiment: Western blotting of VGSC β3 subunit in HepG2 cells after AGAP; assay type: cell-based, human; settings: HepG2, 40 μM, 48 h incubation, control proteins
Protocol: (§1) Analgesic antitumoral peptide (AGAP) at […] different concentrations (0, 5, 10, 15, 20, 25, 30, 35 and 40 μM) were incubated with hepatoma cell lines HepG2 (96 well plates, 10^4 cells/well, 24 h later, AGAP was administered at different concentrations as described above, at least 3 wells were repeated for each concentration) for 48 h, the amount of the VGSC β3 subunit expressed was then detected by Western blotting using the antibody in I.10. The cell proliferation level was measured using the MTT method.

[2] = tested on: hepatoma cell lines HepG2; experiment: MTT assay of HepG2 cell proliferation after AGAP; assay type: cell-based; settings: HepG2, 40 μM, 48 h incubation, control proteins
Protocol: The cell proliferation was measured by MTT assay:took the cells in good growth condition and in logarithmic growth phase, digested with conventional trypsin, and pipetted into a single cell suspension, after counting the blood cell with blood counting chamber, the concentration was adjusted to 10^5 cells/ml (HepG2 cells), then were inoculated into 96-well plates at 100 μl per well, while set the blank hole (only added 100 μl of culture medium, without cells); cultured in 5% CO2 incubator at 37° C. for 24 h, each well was added 0.5 mg/ml MTT, 100 μl, then continued to culture for 4 h, the supernatant was discarded and 150 μl of DMSO was added to each well. The mixture was incubated at low speed for 10 min on a micro shaker, and the absorbance of each well was measured at 490 nm using a microplate reader after the crystals were fully dissolved.
as §1

| Substance | effect on the expression of the VGSC β3 subunit [1] | effect on cell proliferation [2] |
| --- | --- | --- |
| bovine serum albumin | no effect | nor did it affect cell proliferation |
| cytochrome C | no effect | nor did it affect cell proliferation |
